System: 276233-004-R-J1-PDC complex spheroid viability
Assay: Anticancer human tumor 276233-004-R-J1-PDC patient-derived colon adenocarcinoma cell line growth inhibition [GQUAD]
Details: for IC50: curve of first compound; for viability, T/C: stronger effect = lower value
Text: DNA G-quadruplex Stabilizer Agents in Combinations in Complex Spheroids
A high-throughput screen of multi-cell type tumor spheroids was designed to identify active combinations of DNA G-quadruplex stabilizer agents and targeted small molecules. Complex spheroids include a stromal component modeled by human endothelial cells (HUVEC) and fibroblasts modeled by human mesenchymal stem cells (MSCs). The concentration ranges selected for each drug and investigational agent were based upon clinically achievable concentrations if the clinical Cmax of the agent was known.
Compounds. The drugs and investigational agents: pidnarulex (CX-5461; NSC782164), APTO-253 (NSC789042), BRACO-19 (NSC847499), peposertib (NSC802822), ceralasertib (NSC780249), elimusertib (NSC800525), camonsertib (NSC841442), AZD-1390 (NSC803789), olaparib (NSC753686), talazoparib (NSC767125), ART-558 (NSC835418), sotorasib (NSC818433), MRTX-1133 (NSC836407), SN-38 (NSC673596), topotecan (NSC609699), etoposide (NSC141540), doxorubicin (NSC123127), gemcitabine (NSC613327), 5-fluorouracil (NSC19893), paclitaxel (NSC125973), vemurafenib (NSC761431), panobinostat (NSC761190), R-306465 (JNJ-16241199; NSC773264), adavosertib (NSC754352), TP-3654 (NSC805149), carboplatin (NSC241240), KSQ-4279 (NSC840948), and staurosporine (NSC755774) were obtained from the National Cancer Institute (NCI) Developmental Therapeutics Program Chemical Repository (34). The FDA-approved anticancer drug set is available from the NCI Developmental Therapeutics Program. […] The stock solutions were prepared in dimethyl sulfoxide (DMSO, Sigma-Aldrich, St. Louis, MO, cat. D2650) at 800-fold the tested concentration and stored at -70 degrees C prior to their use. All drugs and investigational agents were tested over a range starting from a high concentration at or near the clinical Cmax and decreasing in half-log increments. If the clinical Cmax for an agent had not been determined, the highest concentration tested was 10 microM.
2.3 Cell Culture. All cells were maintained in an incubator at 37 degrees C and 5% CO2 with 95% humidity. The PDC lines were cultured according to standard operating procedures established by the NCI PDMR. All PDCs were thawed and cultured in Matrigel-coated flasks prepared with a working solution of 1X Ham's F-12 nutrient mix, without supplementation (Invitrogen, cat. 11765054), 100 U/mL penicillin-streptomycin (Invitrogen, cat. 15140122), and 2.5% Matrigel (Corning Inc., cat. 354248) for the first three passages. The 857933-349-R-J2-PDC line was cultured in 6C/Colon 1B media, which includes advanced DMEM/F-12 (Thermo Fisher Scientific, cat. 12634028), 10 mM HEPES (Thermo Fisher Scientific, cat. 15630080), 1X GlutaMAX supplement (Thermo Fisher Scientific, cat. 35050061), 0.1 mg/mL primocin (InvivoGen, cat. ant-pm-2), 10% defined fetal bovine serum, heat inactivated (HyClone Laboratories Inc., cat. SH30070.03HI), 50% L-WRN conditioned media (ATCC, cat. CRL-3276), 1.25 mM N-Acetyl-L-cysteine (Sigma-Aldrich, cat. A9165), 10 mM nicotinamide (Sigma-Aldrich, cat. N0636), 1X B-27 supplement (Thermo Fisher Scientific, cat. 17504044), 1X N-2 supplement (Thermo Fisher Scientific, cat. 17502048), 10 microM Y-27632 dihydrochloride (Tocris Bioscience, cat. 1254), and 50 ng/mL human EGF recombinant protein (Thermo Fisher Scientific, cat. PHG0311). The 485176-168-R4-J1-PDC line was cultured in Panc media, which includes all 6C/Colon 1B media components plus 100 ng/mL human FGF-10 (Thermo Fisher Scientific, cat. 100-26), 500 nM SB-431542 (Selleckchem, cat. S1067), and gastrin (Tocris, cat. 3006).
[…]

[1] = second compound 0.0316 µM, first compound 0.0316 µM
[2] = second compound 0.0316 µM, first compound 0.1 µM
[3] = second compound 0.0316 µM, first compound 0.316 µM
[4] = second compound 0.0316 µM, first compound 1 µM
[5] = second compound 0.0316 µM, first compound 3.16 µM
[6] = second compound 0.0316 µM, first compound 10 µM
[7] = second compound 0.1 µM, first compound 0.0316 µM
[8] = second compound 0.1 µM, first compound 0.1 µM
[9] = second compound 0.1 µM, first compound 0.316 µM
[10] = second compound 0.1 µM, first compound 1 µM
[11] = second compound 0.1 µM, first compound 3.16 µM
[12] = second compound 0.1 µM, first compound 10 µM
[13] = second compound 0.316 µM, first compound 0.0316 µM
[14] = second compound 0.316 µM, first compound 0.1 µM
[15] = second compound 0.316 µM, first compound 0.316 µM
[16] = second compound 0.316 µM, first compound 1 µM
[17] = second compound 0.316 µM, first compound 3.16 µM
[18] = second compound 0.316 µM, first compound 10 µM
[19] = second compound 1 µM, first compound 0.0316 µM
[20] = second compound 1 µM, first compound 0.1 µM
[21] = second compound 1 µM, first compound 0.316 µM
[22] = second compound 1 µM, first compound 1 µM
[23] = second compound 1 µM, first compound 3.16 µM
[24] = second compound 1 µM, first compound 10 µM
[25] = second compound 3.16 µM, first compound 0.0316 µM
[26] = second compound 3.16 µM, first compound 0.1 µM
[27] = second compound 3.16 µM, first compound 0.316 µM
[28] = second compound 3.16 µM, first compound 1 µM
[29] = second compound 3.16 µM, first compound 3.16 µM
[30] = second compound 3.16 µM, first compound 10 µM
[31] = second compound 10 µM, first compound 0.0316 µM
[32] = second compound 10 µM, first compound 0.1 µM
[33] = second compound 10 µM, first compound 0.316 µM
[34] = second compound 10 µM, first compound 1 µM
[35] = second compound 10 µM, first compound 3.16 µM
[36] = second compound 10 µM, first compound 10 µM
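Note: spheroids exposed to drugs for seven days.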
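Throughout, for viability, T/C: 100% = DMSO vehicle control viability.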

## CC(=O)O[C@H]1C(=O)[C@@]2(C)[C@H]([C@H](OC(=O)c3ccccc3)[C@]3(O)C[C@H](OC(=O)[C@H](O)[C@@H](NC(=O)c4ccccc4)c4ccccc4)C(C)=C1C3(C)C)[C@]1(OC(C)=O)CO[C@@H]1C[C@@H]2O + Cc1[nH]c2ccc(F)cc2c1-c1nc2c3cccnc3c3ncccc3c2[nH]1
Second compound 0.0316 µM
  IC50: > 10 µM
Second compound 0.1 µM
  IC50: > 10 µM
Second compound 0.316 µM
  IC50: > 10 µM
Second compound 1 µM
  IC50: 0.341 µM
Second compound 3.16 µM
  IC50: < 0.0316 µM
Second compound 10 µM
  IC50: < 0.0316 µM
[1]
  viability, T/C: 82.4%
[2]
  viability, T/C: 72%
[3]
  viability, T/C: 68.8%
[4]
  viability, T/C: 81.9%
[5]
  viability, T/C: 100%
[6]
  viability, T/C: 70.9%
[7]
  viability, T/C: 66.3%
[8]
  viability, T/C: 77.2%
[9]
  viability, T/C: 68.7%
[10]
  viability, T/C: 77.3%
[11]
  viability, T/C: 64.2%
[12]
  viability, T/C: 64.9%
[13]
  viability, T/C: 72.6%
[14]
  viability, T/C: 65.4%
[15]
  viability, T/C: 57.1%
[16]
  viability, T/C: 53.5%
[17]
  viability, T/C: 62.4%
[18]
  viability, T/C: 47.8%
[19]
  viability, T/C: 49.7%
[20]
  viability, T/C: 57%
[21]
  viability, T/C: 55.4%
[22]
  viability, T/C: 39.2%
[23]
  viability, T/C: 45.8%
[24]
  viability, T/C: 51.8%
[25]
  viability, T/C: 20.4%
[26]
  viability, T/C: 14.5%
[27]
  viability, T/C: 15.4%
[28]
  viability, T/C: 12.3%
[29]
  viability, T/C: 13.6%
[30]
  viability, T/C: 12.1%
[31]
  viability, T/C: 42.2%
[32]
  viability, T/C: 40.1%
[33]
  viability, T/C: 38.5%
[34]
  viability, T/C: 28.1%
[35]
  viability, T/C: 30.4%
[36]
  viability, T/C: 33.5%

## CC1COCCN1c1cc(C2(S(C)(=N)=O)CC2)nc(-c2ccnc3[nH]ccc23)n1 (centres undefined) + Cc1[nH]c2ccc(F)cc2c1-c1nc2c3cccnc3c3ncccc3c2[nH]1
Second compound 0.0316 µM
  IC50: > 10 µM
Second compound 0.1 µM
  IC50: > 10 µM
Second compound 0.316 µM
  IC50: > 10 µM
Second compound 1 µM
  IC50: > 10 µM
Second compound 3.16 µM
  IC50: 7.86 µM
Second compound 10 µM
  IC50: 0.424 µM
[1]
  viability, T/C: 96.4%
[2]
  viability, T/C: 83%
[3]
  viability, T/C: 110%
[4]
  viability, T/C: 89.6%
[5]
  viability, T/C: 87.1%
[6]
  viability, T/C: 67.3%
[7]
  viability, T/C: 76.6%
[8]
  viability, T/C: 101%
[9]
  viability, T/C: 85.8%
[10]
  viability, T/C: 90.1%
[11]
  viability, T/C: 75%
[12]
  viability, T/C: 74.1%
[13]
  viability, T/C: 97.3%
[14]
  viability, T/C: 79.8%
[15]
  viability, T/C: 97.7%
[16]
  viability, T/C: 70.1%
[17]
  viability, T/C: 74.6%
[18]
  viability, T/C: 63.6%
[19]
  viability, T/C: 80.3%
[20]
  viability, T/C: 79%
[21]
  viability, T/C: 85.4%
[22]
  viability, T/C: 76.1%
[23]
  viability, T/C: 64.3%
[24]
  viability, T/C: 57.4%
[25]
  viability, T/C: 56.2%
[26]
  viability, T/C: 58.6%
[27]
  viability, T/C: 55.9%
[28]
  viability, T/C: 50.1%
[29]
  viability, T/C: 53.6%
[30]
  viability, T/C: 48.7%
[31]
  viability, T/C: 47.9%
[32]
  viability, T/C: 49.5%
[33]
  viability, T/C: 47.5%
[34]
  viability, T/C: 58.2%
[35]
  viability, T/C: 44%
[36]
  viability, T/C: 36.3%
